Results reported in PubChem BioAssay (NCI).
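These data come from cells grown in 96-well plates and exposed to compound for 48 hours at five concentrations. The concentration for 50% growth inhibition is given as GI50. TGI: total growth inhibition.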

Legend:
Experiment in all cases: inhibition of tumour cell growth, NCI panel, 48 h
NCI-H522 lung = test system: NCI-H522 lung
ACHN renal = test system: ACHN renal
SF-268 CNS = test system: SF-268 CNS
NCI-H226 lung = test system: NCI-H226 lung
SF-295 CNS = test system: SF-295 CNS
HL-60(TB) leukemia = test system: HL-60(TB) leukemia
MALME-3M melanoma = test system: MALME-3M melanoma
UO-31 renal = test system: UO-31 renal
HCT-116 colon = test system: HCT-116 colon
NCI/ADR-RES ovarian = test system: NCI/ADR-RES ovarian

SMILES	TGI (NCI-H522 lung)	TGI (ACHN renal)	TGI (SF-268 CNS)	TGI (NCI-H226 lung)	TGI (SF-295 CNS)	TGI (HL-60(TB) leukemia)	TGI (MALME-3M melanoma)	TGI (UO-31 renal)	TGI (HCT-116 colon)	GI50 (NCI-H522 lung)	GI50 (SF-268 CNS)	GI50 (HCT-116 colon)	GI50 (NCI-H226 lung)	GI50 (SF-295 CNS)	GI50 (MALME-3M melanoma)	GI50 (UO-31 renal)	TGI (NCI/ADR-RES ovarian)	GI50 (ACHN renal)	GI50 (HL-60(TB) leukemia)	GI50 (NCI/ADR-RES ovarian)
CCOC(=O)c1c(NCc2ccccc2)n(-c2ccccc2)c(=S)n(-c2ccccc2)c1=O	> 100 µM	> 100 µM	> 100 µM	> 100 µM	> 100 µM	> 100 µM	> 100 µM	> 100 µM												
COC1(C)C(=O)N2C1N(C(=O)OCc1ccccc1)CC2(C)C (configuration not stated)		> 100 µM	> 100 µM	> 100 µM	> 100 µM	> 100 µM	> 100 µM	> 100 µM	> 100 µM											
COc1ccc2c(c1)C(=O)c1c-2n(CCCN)c(=O)c2cc([N+](=O)[O-])ccc12	2.91 µM		< 0.01 µM	< 0.01 µM	12.2 µM		7.64 µM	0.0172 µM	0.0119 µM	< 10 nM	< 10 nM	< 10 nM	< 10 nM	< 0.01 µM	2.25 µM	< 10 nM				
COC(=O)/C(=C\c1ccco1)P(=O)(OC)OC	5.52 µM	> 100 µM	> 100 µM	> 100 µM	51.4 µM		59 µM		> 100 µM								> 100 µM			
CCN(CC)CCCC(C)Nc1c(Sc2cnc3cc(Cl)ccc3c2NC(C)CCCN(CC)CC)cnc2cc(Cl)ccc12 (configuration not stated)	3.15 µM	3.82 µM	3.83 µM	3.52 µM		3.62 µM	3.71 µM	35.5 µM	2.95 µM											
N.N.N.N.N.O=S(=O)([O-])C(F)(F)F.O=S(=O)([O-])C(F)(F)F.[Os+8]		> 100 µM		8.69 µM	62.8 µM	36.2 µM	19.9 µM	30.7 µM	18 µM			5370 nM	2590 nM	8.07 µM	4.53 µM	12800 nM		19.8 µM	8.92 µM	
CCCCc1c2c(nc3c1CCc1cc4cc5c(nc4nc1-3)-c1nc3c(c(CCCC)c1CC5)CCC/C3=C\c1ccccc1)/C(=C/c1ccccc1)CCC2	> 100 µM	> 100 µM	> 100 µM	> 100 µM	> 100 µM	> 100 µM	> 100 µM	> 100 µM	> 100 µM											
Nc1ccc(C(=O)NN2C(=O)C(Cl)C2c2cccc(O)c2)cc1 (configuration not stated)	3.29 µM	37.9 µM	17 µM	41.4 µM	35.2 µM	8.76 µM	36.7 µM	35 µM	25.8 µM											
Cc1cc(C)nc(NS(=O)(=O)c2ccc(NC(=O)c3cccn4c(=O)c5ccccc5nc34)cc2)n1	42.6 µM	> 100 µM	> 100 µM	97.3 µM	> 100 µM	44.1 µM		74.7 µM	> 100 µM											
COc1cc2c(cc1-c1coc3cc(OCC=C(C)C)ccc3c1=O)OCO2	48.9 µM	> 100 µM	> 100 µM		> 100 µM	35.7 µM		> 100 µM	51.4 µM											
O=C(O)COc1ccc(C(=O)/C(SS/C(C(=O)c2ccc(OCC(=O)O)c(Cl)c2Cl)=C2\C=C(c3ccc(Br)cc3)SS2)=C2/C=C(c3ccc(Br)cc3)SS2)c(Cl)c1Cl	3.95 µM	22 µM	34 µM	42.1 µM	43.3 µM	4.67 µM	41.9 µM	20.2 µM	22.1 µM											
COc1cccc(C2C(C#N)=C(N)Oc3c2ccc2ccccc32)c1 (configuration not stated)		13.4 µM	10.5 µM	1 µM	10.7 µM	0.0629 µM		14.3 µM	3.42 µM	< 10 nM	31.5 nM	< 12.8 nM	20.8 nM	< 0.01 µM		54 nM	0.391 µM	< 0.01 µM	0.0244 µM	< 10 nM
COCCOCOC(C)(C)[C@H](CCOC(C)=O)O[Si](c1ccccc1)(c1ccccc1)C(C)(C)C	29.4 µM	51.1 µM	> 100 µM	19.8 µM	55.5 µM	10.4 µM	55.3 µM	36.9 µM	> 100 µM											
Nc1n[nH]c2ccc([C@@H]3Nc4cc5[nH]ncc5cc4[C@H]4C5CCC(C5)[C@@H]34)cc12 (some centres not stated)	> 45.6 µM	53.5 µM	> 100 µM	46.2 µM	19.2 µM	2.24 µM		> 100 µM	> 100 µM	396 nM	1710 nM	416 nM	1170 nM	0.257 µM		626 nM	> 100 µM	0.723 µM	0.298 µM	807 nM
COc1ccc(Cc2nc3ccccc3s2)cc1OC	32.2 µM	31 µM	29.5 µM	45.7 µM	28.9 µM	45.3 µM	32.6 µM	30 µM	29.2 µM											
CC(=O)[CH-]C(=O)Nc1ccccc1.CC(=O)[CH-]C(=O)Nc1ccccc1.CC[O-].CC[O-].[Ti+4]	> 100 µM	> 100 µM	> 100 µM	> 100 µM	> 100 µM		> 100 µM	> 100 µM	> 100 µM	> 100000 nM	> 100000 nM	> 100000 nM	> 100000 nM	> 100 µM	> 100 µM	> 100000 nM		> 100 µM		
Cc1ccc(NC(=O)CC2SC(N)=NC2=O)cc1C (configuration not stated)	> 100 µM	> 100 µM	> 100 µM	> 100 µM	> 100 µM	> 100 µM	> 100 µM	> 100 µM	> 100 µM											
C/C(=C\Cc1cc(O)ccc1O)CCc1c(C)c(O)c(O)c(C=O)c1C	21.4 µM	52.8 µM	68.5 µM	98 µM	91.5 µM	> 100 µM	80.2 µM	98.8 µM	40.3 µM											
O=C(NN1C(=O)CSC1c1ccc(F)cc1)C(O)c1ccccc1 (configuration not stated)	> 100 µM	> 100 µM	> 100 µM	> 100 µM	> 100 µM	> 100 µM		> 100 µM	> 100 µM	93600 nM	> 100000 nM	> 100000 nM	> 100000 nM	> 100 µM		> 100000 nM	> 100 µM	91.5 µM	91.5 µM	> 100000 nM
